Results: US7572923B2, “Indirubin derivatives having anticancer property against human cancer cell line” (Anygen Co., Ltd., priority 2004, dated 2009)

How the values were obtained:
RK3E-Ras cells [1] = assay: DNA fragmentation, agarose gel electrophoresis; assay type: cell-based, rat; conditions: 10 μM
Experimental: We test if the decline of cell viability by indirubin derivative 011 relates to apoptosis of cell or not. Genomic DNA from cells treated with indirubin derivative 011 is isolated and fragmented. RK3E-Ras cell, 6×10^5/well is seeding on 6 well plate. After incubation of cells for 12˜24 hours, 10 μM of indirubin derivative 011 is treated with cells. As a control, cells without treating any compound or cells treating DMSO in same concentration are employed.

RK3E-Ras cells [2] = assay: Cell viability by MTT assay; assay type: cell-based, rat; conditions: 1, 10, 20, 40 μM, 6, 12, 24, 48 hours
Experimental: To measure the influence to cell viability by indirubin derivative, RK3E-Ras cell, 1×10^5/well is seeding on 24 well plate. After incubation of cells for 12˜24 hours, indirubin derivative 011 in various concentration (1 μM, 10 μM, 20 μM, 40 μM) are treated for 6, 12, 24, 48 hours respectively. As control, cells without treating any compound are employed. […] FIG. 1 show the decline of cell viability after treatment of indirubin derivative 011.
According to the same condition in Example 3, other indirubin derivative 012, 030 are treated to measure the influence to cell viability.

RK3E-ras solid tumor [3] = assay: Histological appearance of tumor lesion, H&E stain; assay type: in vivo, Sprague Dawley rat; conditions: rat tumor tissue
Experimental: (§1) 1×10^7 of RK3E-ras cells is injected to Sprague Dawley rat to induce solid tumor for 5 days and experimental groups of animals are employed by size and volume of tumor in these animals. 100 mM of indirubin derivative is injected to experimental group of animals 5 times in every other day.
To observe histological appearance of tumor lesion after indirubin derivatives 011, 012 and 030 treatment, tumor tissue is immobilized in para-formaldehyde solution and is treated with paraffin. Then, H&E stain is carried out. […] From this experiment, indirubin derivatives of the present invention induce apoptosis of tumor, which results in the suppression of tumor formation in tissue level. FIG. 8 is photography showing the appearance of tumor lesion after treating indirubin derivatives 011, 012 and 030 of present invention.

[4] = tested on: leukemia cell line (HL-60); assay: Differentiation inducing effect, NBT reduction method; assay type: cell-based, human; conditions: 0.2 μM compound, 3 days
Experimental: For measuring the differentiation inducing effect to acute bone merrow leukemia cell line (HL-60) by indirubin AGM compound, NBT (nitroblue tetrazolium) reduction reaction method is employed. The leukemia cell line is diluted into 2×10^5 cfu/ml. […] Incubated cells are washed with phosphate buffered saline (PBS). Then, they are further incubated in PBS solution containing 0.1% NBT and 200 ng/ml of PMA (phorbol 12-myristate 13-acetate) for 30 minutes at 37° C. Incubated cells are centrifuged and collected cells are washed with PBS solution. Using cell number counter, differentiated cells forming nitroblue formazan among total cells are counted.

human cancer cell line = assay: Inhibition of cancer cell line proliferation, overall conclusion; assay type: cell-based; conditions: conclusion from Table 2
Experimental: (§2) For measuring the proliferation inhibition by indirubin compound, the method disclosed in K. Likhitwitayawuid et al. Journal. Nat. Prod. […] Followings are simple description of this method. The cancer cell line is diluted into 5×10^4 cfu/ml. Then, various concentrations of test compounds are added to 96 well microtiter plate containing diluted cell line. After incubating test plate for 3˜4 days at 37° C., the test plate is dried and Tris-base is added. Then, using ELISA plate detector, the absorbance at 515 nm is measured. IC50 is measured by non-linear regression method.

[5] = tested on: human leukemia cell line (HL-60); assay: Inhibition of cancer cell line proliferation, HL-60; assay type: cell-based; conditions: HL-60, 96 h, HL60, 3˜4 days incubation, absorbance at 515 nm
Experimental: as §2

RK3E-Ras cells [6] = assay: Annexin-V-FLUOS/propidium iodide double staining assay for apoptosis; assay type: cell-based, rat; conditions: 1 μM, 24 hours
Experimental: Annexin-V-FLUOS/propidium iodide double staining assay is a sensitive method for measuring apoptosis in cell level by detecting exposed phosphatidyl serine in apoptotic cell membrane.
RK3E-Ras cell is seeding in 6×10^5 level on cover side. Indirubin derivatives 011, 012 and 030 are treated in 1 μM concentration for 24 hours. As a control, cells without treating any compound are employed. After 24 hours, cells are annexin-V-FLUOS/propidium iodide double stained using annexin-V-FLUOS staining kit. […] It is confirmed that apoptosis of cells treated with indirubin derivatives 011, 012 and 030 is processed.

[7] = tested on: human colon cancer cell line (Col2); assay: Inhibition of cancer cell line proliferation, Col2; assay type: cell-based; conditions: 96 h, 3˜4 days incubation, absorbance at 515 nm
Experimental: as §2

RK3E-ras solid tumor [8] = assay: Tumor suppression in RK3E-ras tumor induced rats; assay type: in vivo; conditions: Sprague Dawley rat
Experimental: RK3E cell is one of rat kidney cell and it is immortalized by EA1 oncogene. […] Inventors prepares stable RK3E-k-ras cell line by infection of retroviral expression vector to express mutant k-ras of oncogene. Prepared cell line is intramuscularly infected to Sprague Dawley rat to induce tumor. […] Tumor suppression effect by indirubin derivatives 011, 012 and 030 is measured through tumor induced rats.
as §1
Tumor is measured by vernier caliper and the volume of tumor is calculated by Carlsso calculation method {V=1/2(a.b^2), a: long axis, b: short axis}.

[9] = tested on: human lung cancer cell line (A549); assay: Inhibition of cancer cell line proliferation, A549; assay type: cell-based; conditions: 96 h, 3˜4 days incubation, absorbance at 515 nm
Experimental: as §2

[10] = tested on: human leukemia cell line (HL-60); assay: Differentiation with low concentration 1,25-(OH)2D3 or ATRA, NBT reduction method; assay type: cell-based
Experimental: For measuring the differentiation inducing effect to acute bone merrow leukemia cell line (HL-60) by indirubin AGM compound, NBT (nitroblue tetrazolium) reduction reaction method is employed. The leukemia cell line is diluted into 2×10^5 cfu/ml. After treating 20 μM and 1 μM concentrations of test compounds, test plate is incubated for 3 days at 37° C. in 5% CO2 incubator. Incubated cells are washed with phosphate buffered saline (PBS). Then, they are further incubated in PBS solution containing 0.1% NBT and 200 ng/ml of PMA (phorbol 12-myristate 13-acetate) for 30 minutes at 37° C. Incubated cells are centrifuged and collected cells are washed with PBS solution. Using cell number counter, differentiated cells forming nitroblue formazan among total cells are counted.
Next, we test if AGM compound of present invention can synergically induce the differentiation of acute bone merrow leukemia cell line when it is treated with low concentration of 1,25-dihydroxyvitamin D3[1,25-(OH)2D3] or all-trans retinoic acid (ATRA) known as differentiation inducing agent. […] […] As a positive control, conventional differentiation inducing agent is used.

[11] = tested on: human abdominal cavity cancer cell line (HT 1080); assay: Inhibition of cancer cell line proliferation, HT 1080; assay type: cell-based; conditions: HT-1080, 96 h, HT108, 3˜4 days incubation, absorbance at 515 nm
Experimental: as §2

[12] = tested on: human stomach cancer cell line (SNU-638); assay: Inhibition of cancer cell line proliferation, SNU-638; assay type: cell-based; conditions: 96 h, 3˜4 days incubation, absorbance at 515 nm
Experimental: as §2

- IC50 [5]: 9.23 µM
- IC50 [7]: 25.5 µM
- IC50 [9]: 5.43 µM
- IC50 [11]: 5.87 µM
- IC50 [12]: 1.21 µM
Compound: O=C1Nc2ccc([N+](=O)[O-])cc2C1=C1Nc2ccccc2C1=NO [AGM011, 5′-nitro-1H,1′H-[2,3′] biindolylidene-3,2′-dione 3-oxime]
- DNA fragmentation (RK3E-Ras cells [1]; 12 hours): some DNA fragmentation occurs
- DNA fragmentation (RK3E-Ras cells [1]; 24 hours): clear DNA fragmentation is detected
- cell viability according to increase of compound concentration (RK3E-Ras cells [2]): rapidly declined
- histological appearance of tumor lesion (RK3E-ras solid tumor [3]): necrosis or calcification of tumor is observed
- % of Differentiation [4]: 24.02 ± 0.85%
- inhibitor against proliferation of human cancer cell line (human cancer cell line): effective inhibitor
- annexin-V green fluorescence staining versus control (RK3E-Ras cells [6]): far more stained by green fluorescence than cells of control group
- progress of apoptosis (RK3E-Ras cells [6]; FIG. 4): fast processed
- size and volume of tumor (RK3E-ras solid tumor [8]; 100 mM injected 5 times in every other day): decrease
- suppression against tumor (tumor volume) (RK3E-ras solid tumor [8]; tumor volume by vernier caliper, V=1/2(a.b^2)): 80%
- % of Differentiation, 1,25-(OH)2D3 ([10]; 0.2 μM compound with 5 nM of 1,25-(OH)2D3): 31.79 ± 0.87%
- % of Differentiation, all-trans RA ([10]; 0.2 μM compound with 50 nM of ATRA): 34.87 ± 0.74%
